Measurements published in patent publication US10639345B2, “Compositions for preserving photoreceptor cells, retinal pigment epithelial cells, or visual function” (Massachusetts Eye and Ear Infirmary, priority 2010, dated 2020).
Where a SMILES comes first, the peptide text is derived from it. The star is where a group is joined. Cbz = O=C(OCc1ccccc1)*; CH2F = FC*

Assays:
AIF = AIF nuclear translocation (AIF/TUNEL double staining) after retinal detachment; format: in vivo; details: three days after retinal detachment
Experimental: Immunohistochemistry (IHC) was performed as previously reported (Murakami Y et al. (2008) AM J PATHOL 173:1326-1338). Rabbit anti-AIF antibody (1:100; Cell Signaling Technology, Danvers, Mass.) was used as the primary antibody. The specimens were imaged by confocal microscopy using the Leica HCX APOL40× lens.
Immunofluorescence was performed as previously reported (Hisatomi et al. (2008) J CLIN INVEST 118:2025-2038. The enucleated eyes were frozen in OCT compound (Sakura Finetechnical Co., Tokyo, Japan). Five μm-thick sections were cut, air dried and fixed in cold acetone for 10 minutes. Rabbit anti-AIF antibody (1:100; Cell Signaling Technology, Danvers, Mass.) was used as the primary antibody and incubated at 4° C. overnight. A non-immune serum was used as a negative control. Alexa Fluor 488-conjugated goat anti-rabbit IgG was used as the secondary antibody and incubated at room temperature for one hour. The specimens were imaged by confocal microscopy using the Leica HCX APOL40× lens.
Apoptosis-inducing factor (AIF) is a caspase-independent inducer of cell death, which is released from the mitochondria and translocates into the nuclei during cell death (Susin S A et al. (1999) NATURE 397:441-446). […]

photoreceptors = experiment: TEM quantification of apoptotic and necrotic photoreceptor death after retinal detachment; format: in vivo; details: day three after retinal detachment, ONL
Experimental: The morphology of photoreceptors after retinal detachment was examined by transmission electron microscopy (TEM) and propidium iodide (PI) staining and the effect of treatment with Z-VAD and/or a Nec-1 compound of Formula I-C was analyzed.
TEM was performed as previously described (Hisatomi T et al. (2008). J. CLIN. INVEST. 118:2025-2038). […] Over 200 photoreceptors each eye were photographed and subjected to quantification of cell death modes in a masked fashion. Photoreceptors showing cellular shrinkage and nuclear condensation were defined as apoptotic cells, while photoreceptors associated with cellular and organelle swelling and discontinuities in nuclear and plasma membrane were defined as necrotic cells. The presence of electron-dense granular materials were reported to occur subsequent to both apoptotic and necrotic cell death and cells with these findings were labeled simply as end-stage cell death/unclassified (Hisatomi T et al. (2003) AM. J. PATHOL. 162:1869-1879; Erickson P A et al. (1983) INVEST. OPHTHALMOL. VIS. SCI. 24:927-942).
On day three after retinal detachment, photoreceptor death caused by apoptosis was almost twice that caused by necrosis in vehicle-treated retina (% apoptotic cells: 21.7±1.3%, necrotic cells: 13.3±1.0%, unclassified: 4.4±1.4%; FIGS. 7A and 7E).

RIP-3−/− RPE cells = experiment: Viability of RIP-3−/− RPE cells treated with poly I:C (Cell Counting Kit-8); format: cell-based, mice
Experimental: As described in Example 11, primary RPE cells were extracted from the retina of mice and cultured in the presence of 5 μg/ml of poly I:C for 48 hours or with PBS. Cell viability was measured using Cell Counting Kit-8 (Dojindo Laboratories, Kumamoto, Japan). This assay is based on the cleavage of 2-(2-methoxy-4-nitrophenyl)-3-(4-nitrophenyl)-5-(2,4-disulfophenyl)-2H-tetrazolium, monosodium salt (WST-8) by the mitochondrial dehydrogenase enzyme to produce a formazan dye. After incubation with WST-8 for two hours at 37° C., absorbance was measured at 450 nm to determine cell viability.
Without poly I:C treatment, the viability of RPE cells was similar in WT and RIP-3−/− cells.

COC(=O)CC(NC(=O)C(C)NC(=O)C(NC(=O)OCc1ccccc1)C(C)C)C(=O)CF (stereo not drawn) [Z-VAD, Benzyloxycarbonyl-Val-Ala-Asp(OMe)-fluoromethylketone] (Cbz-Val-Ala-Asp(OMe)-CH2F; configuration not given here)
AIF/TUNEL-double positive cells (AIF nuclear translocation) (AIF): 1021.9±233.9 cells/mm^2
% apoptotic cells (TEM) (photoreceptors): 11.4±1.2%
% necrotic cells (TEM) (photoreceptors): 21.9±2.3%
% unclassified (end-stage cell death, TEM) (photoreceptors): 5.6±1.4%
viability of RPE cells (RIP-3−/− RPE cells): protected from cell death
